# Measured values: patent US6914045B2, “Glycopeptide antibiotics” (Wyeth Holdings Corporation, priority 2001, dated 2005)
# Columns and labels:
# Experiment in all cases: in vitro antibacterial evaluation, MIC by broth dilution
# Type in all cases: cell-based
# Enterococcus sp. = system: Enterococcus sp.
# Summary of the method: (§1)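 MIC = lowest antibiotic concentration preventing visible growth; inoculum 5×10^5 CFU/mL; drug range 64-0.06 μg/mL; Muller-Hinton II […]; NCCLS M7-A2 guidance.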
# Staphylococcus sp. = conditions: broth dilution, 18 hours at 35° C.; for MIC Staphylococcus aureus (ATCC 29213): strain ATCC 29213; for MIC Staphylococcus aureus (GC 1131): strain GC 1131; for MIC Staphylococcus aureus (GC 3051): strain GC 3051; for MIC Staphylococcus aureus (GC 3053): strain GC 3053; for MIC Staphylococcus aureus (GC 4541): strain GC 4541; for MIC Staphylococcus aureus (GC 4542): strain GC 4542; for MIC Staphylococcus aureus (GC 4544): strain GC 4544; for MIC Staphylococcus aureus (GC 4545): strain GC 4545
# Summary of the method: as §1
# Streptococcus sp. = system: Streptococcus sp.
# Summary of the method: as §1
# Escherichia coli = conditions: 18 hours at 35° C.
# Summary of the method: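 Broth dilution MIC per NCCLS M7-A2 in Mueller-Hinton II medium, inoculum 5×10^5 CFU/mL, antibiotic range 64-0.06 μg/mL. MIC taken as lowest concentration inhibiting growth.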
# [1] = broth dilution, 18 hours at 35° C.
smiles,measurement,setting,value
"COc1ccc(Oc2cccc(-c3nc4cc(CC5NC(=O)C(C(C)c6ccccc6)NC(=O)CNC(=O)C(CO)NC(=O)C(C(O)C6CNC(=N)N6C6OC(CO)C(O)C(O)C6O)NC(=O)C(C(O)C6CNC(=N)N6)NC5=O)ccc4o3)c2)cc1 (stereo not drawn) [Example 35, Cyclo[3-[2-[3-(4-methoxyphenoxy)phenyl]-1,3-benzoxazol-5-yl]alanyl-3-(2-iminoimidazolidin-4-yl)seryl-3-(3-hexopyranosyl-2-iminoimidazolidin-4-yl)serylserylglycyl-β-methylphenyl-alanyl]]",MIC Enterococcus faecalis (ATCC 29212),"Enterococcus sp.; strain ATCC 29212; broth dilution, 18 hours at 35° C.",16 µg/mL
same,MIC Enterococcus faecalis (GC 2242),"Enterococcus sp.; strain GC 2242; broth dilution, 18 hours at 35° C.",16 µg/mL
same,MIC Enterococcus faecium (GC 2243),"Enterococcus sp.; strain GC 2243; broth dilution, 18 hours at 35° C.",8 µg/mL
same,MIC Enterococcus faecalis (GC 2691),"Enterococcus sp.; strain GC 2691; broth dilution, 18 hours at 35° C.",16 µg/mL
same,MIC Enterococcus faecalis (GC 3059),"Enterococcus sp.; strain GC 3059; broth dilution, 18 hours at 35° C.",32 µg/mL
same,MIC Enterococcus faecalis (GC 4552),"Enterococcus sp.; strain GC 4552; broth dilution, 18 hours at 35° C.",32 µg/mL
same,MIC Enterococcus faecalis (GC 4553),"Enterococcus sp.; strain GC 4553; broth dilution, 18 hours at 35° C.",8 µg/mL
same,MIC Enterococcus faecalis (GC 4554),"Enterococcus sp.; strain GC 4554; broth dilution, 18 hours at 35° C.",32 µg/mL
same,MIC Enterococcus faecium (GC 4556),"Enterococcus sp.; strain GC 4556; broth dilution, 18 hours at 35° C.",32 µg/mL
same,MIC Enterococcus faecium (GC 4557),"Enterococcus sp.; strain GC 4557; broth dilution, 18 hours at 35° C.",4 µg/mL
same,MIC Enterococcus avium (GC 4558),"Enterococcus sp.; strain GC 4558; broth dilution, 18 hours at 35° C.",8 µg/mL
same,MIC Enterococcus faecalis (GC 6189),"Enterococcus sp.; strain GC 6189; broth dilution, 18 hours at 35° C.",16 µg/mL
same,MIC Staphylococcus aureus (ATCC 29213),Staphylococcus sp.,8 µg/mL
same,MIC Staphylococcus aureus (GC 1131),Staphylococcus sp.,8 µg/mL
same,MIC Staphylococcus aureus (GC 3051),Staphylococcus sp.,8 µg/mL
same,MIC Staphylococcus aureus (GC 3053),Staphylococcus sp.,8 µg/mL
same,MIC Staphylococcus aureus (GC 4541),Staphylococcus sp.,8 µg/mL
same,MIC Staphylococcus aureus (GC 4542),Staphylococcus sp.,8 µg/mL
same,MIC Staphylococcus aureus-SMITH (GC 4543),Staphylococcus sp.; strain GC 4543,8 µg/mL
same,MIC Staphylococcus aureus (GC 4544),Staphylococcus sp.,8 µg/mL
same,MIC Staphylococcus aureus (GC 4545),Staphylococcus sp.,8 µg/mL
same,MIC Staphylococcus haemolyticus (GC 4546),Staphylococcus sp.; strain GC 4546,8 µg/mL
same,MIC Coagulase Negative Staphylococcus (GC 4547),Staphylococcus sp.; strain GC 4547,8 µg/mL
same,MIC Coagulase Negative Staphylococcus (GC 4548),Staphylococcus sp.; strain GC 4548,8 µg/mL
same,MIC Coagulase Negative Staphylococcus (GC 4549),Staphylococcus sp.; strain GC 4549,8 µg/mL
same,MIC Coagulase Negative Staphylococcus (GC 4551),Staphylococcus sp.; strain GC 4551,8 µg/mL
same,MIC Coagulase Negative Staphylococcus (GC 6257),Staphylococcus sp.; strain GC 6257,2 µg/mL
same,MIC Streptococcus pneumoniae (ATCC 6301),"Streptococcus sp.; strain ATCC 6301; broth dilution, 18 hours at 35° C.",8 µg/mL
same,MIC Streptococcus pneumoniae (GC 1894),"Streptococcus sp.; strain GC 1894; broth dilution, 18 hours at 35° C.",8 µg/mL
same,MIC Streptococcus pyogenes (GC 4563),"Streptococcus sp.; strain GC 4563; broth dilution, 18 hours at 35° C.",2 µg/mL
same,MIC Streptococcus agalactiae (GC 4564),"Streptococcus sp.; strain GC 4564; broth dilution, 18 hours at 35° C.",8 µg/mL
same,MIC Streptococcus pneumoniae (GC 4565),"Streptococcus sp.; strain GC 4565; broth dilution, 18 hours at 35° C.",16 µg/mL
same,MIC Escherichia coli (ATCC 25922),"Escherichia coli; strain ATCC 25922, broth dilution",>128 µg/mL
same,MIC Escherichia coli (GC 4559),"Escherichia coli; strain GC 4559, broth dilution",>128 µg/mL
same,MIC Escherichia coli (GC 4560),"Escherichia coli; strain GC 4560, broth dilution",16 µg/mL
"CC(c1ccccc1)C1NC(=O)CNC(=O)C(CO)NC(=O)C(C(O)C2CN(c3nc4ccccc4o3)C(=N)N2C2OC(CO)C(O)C(O)C2O)NC(=O)C(C(O)C2CNC(=Nc3nc4ccccc4o3)N2)NC(=O)C(Cc2ccc(OC3OC(CO)C(OC4OC(CO)C(O)C(O)C4O)C(O)C3O)cc2)NC1=O (stereo not drawn) [Example 93, Cyclo[glycyl-β-methylphenylalanyl-O-(4-O-hexopyranosylhexopyranosyl)tyrosyl-3-[2-(1,3-benzoxazol-2-ylimino)imidazolidin-4-yl]seryl-3-[1-(1,3-benzoxaxol-2-yl)-3-hexopyranosyl-2-iminoimidazolidin-4-yl]serylseryl]]",MIC Enterococcus avium (GC 4558),"Enterococcus sp.; Enterococcus avium (GC 4558); broth dilution, 18 hours at 35° C.",128 µg/mL
same,MIC Enterococcus faecalis (ATCC 29212),"Enterococcus sp.; Enterococcus faecalis (ATCC 29212); broth dilution, 18 hours at 35° C.",>128 µg/mL
same,MIC Enterococcus faecalis (GC 4552),"Enterococcus sp.; Enterococcus faecalis (GC 4552); broth dilution, 18 hours at 35° C.",>128 µg/mL
same,MIC Enterococcus faecalis (GC 4553),"Enterococcus sp.; Enterococcus faecalis (GC 4553); broth dilution, 18 hours at 35° C.",>128 µg/mL
same,MIC Enterococcus faecalis (GC 4554),"Enterococcus sp.; Enterococcus faecalis (GC 4554); broth dilution, 18 hours at 35° C.",>128 µg/mL
same,MIC Enterococcus faecalis (GC 6189),"Enterococcus sp.; Enterococcus faecalis (GC 6189); broth dilution, 18 hours at 35° C.",>128 µg/mL
same,MIC Enterococcus faecium (GC 2243),"Enterococcus sp.; Enterococcus faecium (GC 2243); broth dilution, 18 hours at 35° C.",>128 µg/mL
same,MIC Enterococcus faecium (GC 4556),"Enterococcus sp.; Enterococcus faecium (GC 4556); broth dilution, 18 hours at 35° C.",>128 µg/mL
same,MIC Enterococcus faecium (GC 4557),"Enterococcus sp.; Enterococcus faecium (GC 4557); broth dilution, 18 hours at 35° C.",128 µg/mL
same,MIC Enterococcus avium (GC 4558),Enterococcus sp.; [1],128 µg/mL
same,MIC Enterococcus faecalis (ATCC 29212),Enterococcus sp.; [1],>128 µg/mL
same,MIC Enterococcus faecalis (GC 2242),Enterococcus sp.; [1],>128 µg/mL
same,MIC Enterococcus faecalis (GC 2691),Enterococcus sp.; [1],>128 µg/mL
same,MIC Enterococcus faecalis (GC 3059),Enterococcus sp.; [1],>128 µg/mL
same,MIC Enterococcus faecalis (GC 4552),Enterococcus sp.; [1],>128 µg/mL
same,MIC Enterococcus faecalis (GC 4553),Enterococcus sp.; [1],>128 µg/mL
same,MIC Enterococcus faecalis (GC 4554),Enterococcus sp.; [1],>128 µg/mL
same,MIC Enterococcus faecalis (GC 6189),Enterococcus sp.; [1],>128 µg/mL
same,MIC Enterococcus faecium (GC 2243),Enterococcus sp.; [1],>128 µg/mL
same,MIC Enterococcus faecium (GC 4556),Enterococcus sp.; [1],>128 µg/mL
same,MIC Enterococcus faecium (GC 4557),Enterococcus sp.; [1],128 µg/mL
same,MIC Enterococcus faecalis (GC 2242),"Enterococcus sp.; broth dilution, 18 hours at 35° C.; strain GC 2242",>128 µg/mL
same,MIC Enterococcus faecalis (GC 2691),"Enterococcus sp.; broth dilution, 18 hours at 35° C.; strain GC 2691",>128 µg/mL
same,MIC Enterococcus faecalis (GC 3059),"Enterococcus sp.; broth dilution, 18 hours at 35° C.; strain GC 3059",>128 µg/mL
same,MIC Coagulase Negative Staphylococcus (GC 4547),Staphylococcus sp.,>128 µg/mL
same,MIC Coagulase Negative Staphylococcus (GC 4548),Staphylococcus sp.,>128 µg/mL
same,MIC Coagulase Negative Staphylococcus (GC 4549),Staphylococcus sp.,>128 µg/mL
same,MIC Coagulase Negative Staphylococcus (GC 4551),Staphylococcus sp.,>128 µg/mL
same,MIC Staphylococcus aureus-SMITH (GC 4543),Staphylococcus sp.,>128 µg/mL
same,MIC Staphylococcus haemolyticus (GC 4546),Staphylococcus sp.,>128 µg/mL
same,MIC Staphylococcus aureus (ATCC 29213),Staphylococcus sp.,>128 µg/mL
same,MIC Staphylococcus aureus (GC 1131),Staphylococcus sp.,>128 µg/mL
same,MIC Staphylococcus aureus (GC 3051),Staphylococcus sp.,>128 µg/mL
same,MIC Staphylococcus aureus (GC 3053),Staphylococcus sp.,>128 µg/mL
same,MIC Staphylococcus aureus (GC 4541),Staphylococcus sp.,>128 µg/mL
same,MIC Staphylococcus aureus (GC 4542),Staphylococcus sp.,>128 µg/mL
same,MIC Staphylococcus aureus-SMITH (GC 4543),Staphylococcus sp.; strain GC 4543,>128 µg/mL
same,MIC Staphylococcus aureus (GC 4544),Staphylococcus sp.,>128 µg/mL
same,MIC Staphylococcus aureus (GC 4545),Staphylococcus sp.,>128 µg/mL
same,MIC Staphylococcus haemolyticus (GC 4546),Staphylococcus sp.; strain GC 4546,>128 µg/mL
same,MIC Coagulase Negative Staphylococcus (GC 4547),Staphylococcus sp.; strain GC 4547,>128 µg/mL
same,MIC Coagulase Negative Staphylococcus (GC 4548),Staphylococcus sp.; strain GC 4548,>128 µg/mL
same,MIC Coagulase Negative Staphylococcus (GC 4549),Staphylococcus sp.; strain GC 4549,>128 µg/mL
same,MIC Coagulase Negative Staphylococcus (GC 4551),Staphylococcus sp.; strain GC 4551,>128 µg/mL
same,MIC Streptococcus agalactiae (GC 4564),Streptococcus sp.; [1],>128 µg/mL
same,MIC Streptococcus pneumoniae (ATCC 6301),Streptococcus sp.; [1],>128 µg/mL
same,MIC Streptococcus pneumoniae (GC 1894),Streptococcus sp.; [1],128 µg/mL
same,MIC Streptococcus pneumoniae (GC 4565),Streptococcus sp.; [1],>128 µg/mL
same,MIC Streptococcus pyogenes (GC 4563),Streptococcus sp.; [1],>128 µg/mL
same,MIC Streptococcus pneumoniae (ATCC 6301),"Streptococcus sp.; broth dilution, 18 hours at 35° C.; strain ATCC 6301",>128 µg/mL
same,MIC Streptococcus pneumoniae (GC 1894),"Streptococcus sp.; broth dilution, 18 hours at 35° C.; strain GC 1894",128 µg/mL
same,MIC Streptococcus pyogenes (GC 4563),"Streptococcus sp.; broth dilution, 18 hours at 35° C.; strain GC 4563",>128 µg/mL
same,MIC Streptococcus agalactiae (GC 4564),"Streptococcus sp.; broth dilution, 18 hours at 35° C.; strain GC 4564",>128 µg/mL
same,MIC Streptococcus pneumoniae (GC 4565),"Streptococcus sp.; broth dilution, 18 hours at 35° C.; strain GC 4565",>128 µg/mL
same,MIC Escherichia coli (ATCC 25922),Escherichia coli,>128 µg/mL
same,MIC Escherichia coli (GC 4559),Escherichia coli,>128 µg/mL
same,MIC Escherichia coli (GC 4560),Escherichia coli,>128 µg/mL
